This note sets out measurements from US5506256A, “Proline derivatives possessing prolyl endopeptidase-inhibitory activity” (Yoshitomi Pharmaceutical Industries, Ltd., priority 1990, dated 1996).

One experiment has as its system leucine aminopeptidase. Briefly: Determination of leucine aminopeptidase-inhibitory activity. It counts as biochemical, swine. Set-up: unit not given here. Here is the method: (§1) The methods for the measurement of inhibitory activities against various proteases and the method for calculating the inhibition rate are as follows.
Determination of leucine aminopeptidase-inhibitory activity
Similarly, by following the procedure mentioned above, but employing a 50 mM Tris-HCl buffer (pH 8.0) as a buffer for measurement, a […] solution of leucine aminopeptidase (derived from swine kidney, Sigma) in the same buffer as an enzyme solution and a 200 μM solution of 7-leucyl-4-methyl-coumarinamide (Peptide Institute, Inc.) in the same buffer as a substrate solution, each fluorescence (d1, d2 and d3) was determined, respectively.
(§2) Using the fluorescence x1, x2 and x3 measured in the abovementioned manner, the inhibitory rate against various proteases was calculated by the following formula where x stands for b, c, d, e or f: [formula]

A further experiment addresses T1, prolyl endopeptidase (Rattus norvegicus, UniProt O70196).
T1 construct: prolyl endopeptidase extracted from rat brain; from tissue; host or cells: rat brain
Kind of experiment: Prolyl endopeptidase-inhibitory activity. It is filed as biochemical. The conditions noted are these: for inhibition at 0.1 µM / inhibition at 1 µM: read-out: inhibition rate, prolyl endopeptidase; for IC50: prolyl endopeptidase extracted from rat brain, pH 7.0, 30° C., read-out: IC50. Here is the method:
Prolyl endopeptidase-inhibitory activity
A mixture of a 0.1M potassium sodium phosphate buffer (pH 7.0) (2675 μl), a solution of the compounds of the present invention in a 0.1M potassium sodium phosphate buffer (pH 7.0) (100 μl) and a solution of prolyl endopeptidase extracted from rat brain in a 25 mM sodium phosphate buffer (100 μl) [123 unit/1, pH 6.8, containing 1 mM dithiothreitol and 0.5 mM EDTA, prepared by the method described in J. Neurochem., 35, 527 (1980)]was preincubated at 30° C. for 30 minutes. Thereto was added a 0.2 mM solution of 7-(N-succinyl-glycyl-prolyl)-4-methylcoumarinamide (Peptide Institute, INC.) in a 0.1M potassium sodium phosphate buffer (pH 7.0) (125 μl), and the mixture was incubated at 30° C. for 1 hour. The reaction mixture was immersed in ice (0° C.) to terminate the reaction, and the fluorescence (a1) was determined ten minutes later (excitation at 370 nm and emission at 440 nm). Concurrently, there were conducted the experiment wherein, in the above system, the prolyl endopeptidase solution was substituted for a 25 mM sodium phosphate buffer (pH 6.8, containing 1 mM dithiothreitol and 0.5 mM EDTA) and the experiment wherein the solution of the compounds of the present invention was substituted for a 0.1M potassium sodium phosphate buffer (pH 7.0). Each fluorescence (a2 and a3) was determined respectively [See Tanpakushitsu Kakusan Koso, 29, 127 (1984)]. The prolyl endopeptidase-inhibition rate was calculated by the following formula, and IC50, a concentration of a compound producing 50% inhibition, was estimated by semilogarithmic graph paper. [formula] […]

Another experiment has as its target T2, elastase (Sus scrofa, UniProt P00772).
T2 construct: purchased Sigma; host or cells: swine pancreas
Kind of experiment: Determination of elastase-inhibitory activity. It counts as biochemical, swine. The conditions noted are these: read-out: inhibition rate, elastase. As to the method: as §1
Determination of elastase-inhibitory activity
Similarly, by following the procedure mentioned above, but employing a 1 mM Tris-HCl buffer (pH 8.5) as a buffer for measurement, a 0.2 μM solution of elastase (derived from swine pancreas, Sigma) in the same buffer as an enzyme solution and a 200 μM solution of 7-(N-succinyl-aranyl-prolyl-aranyl)-4-methylcoumarinamide (Peptide Institute, Inc.) in the same buffer as a substrate solution, each fluorescence (e1, e2 and e3) was determined, respectively.
as §2

The target of a further experiment is T3, chymotrypsin (Bos taurus, UniProt P00766).
T3 construct: purchased Sigma; host or cells: bovine pancreas
Briefly: Determination of chymotrypsin-inhibitory activity. Conditions: read-out: inhibition rate, chymotrypsin. It is filed as biochemical, bovine. Here is the method:
as §1
Determination of chymotrypsin-inhibitory activity
Similarly, by following the procedure mentioned above, but employing a 50 mM Tris-HCl buffer (pH 8.0) as a buffer for measurement, a 0.2 μM solution of chymotrypsin (derived from bovine pancreas, Sigma) in the same buffer as an enzyme solution and a […] solution of 7-(N-succinyl-leucyl-leucyl-valyl-tyrosyl)-4-methylcoumarinamide (Peptide Institute, Inc.) in the same buffer as a substrate solution, each fluorescence (c1, c2 and c3) was determined, respectively.
as §2

In another experiment the target is T4, trypsin (Bos taurus, UniProt P00760).
T4 construct: purchased Sigma; host or cells: bovine pancreas
T4 sequence (P00760 24-246): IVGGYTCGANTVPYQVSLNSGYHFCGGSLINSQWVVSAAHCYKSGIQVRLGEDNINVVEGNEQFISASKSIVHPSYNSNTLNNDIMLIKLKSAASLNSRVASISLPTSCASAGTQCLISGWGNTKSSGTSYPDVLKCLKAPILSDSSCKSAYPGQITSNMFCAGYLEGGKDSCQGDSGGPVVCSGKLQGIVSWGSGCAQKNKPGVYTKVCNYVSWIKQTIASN
Briefly: Determination of trypsin-inhibitory activity. Conditions: read-out: inhibition rate, trypsin. It counts as biochemical, bovine. As to the method:
as §1
Determination of trypsin-inhibitory activity
In the present invention, a 50 mM Tris-HCl buffer (pH 8.0) was employed as a buffer for measurement.
To a mixture of the above-mentioned buffer (850 μl), a solution of the compounds of the present invention in the same buffer (50 μl) and a 0.02 μM solution of trypsin (derived from bovine pancreas, Sigma) in the same buffer (50 μl) was added a 200 μM solution of 7-(prolyl-phenylaranyl-arginyl)-4-methylcoumarinamide (Peptide Institute, Inc.) in the same buffer (50 μl),and the mixture was incubated at 30° C. for 1 hour. The reaction mixture was immersed in ice (0° C.) to terminate the reaction, and the fluorescence (b1) was determined 1 hour later (excitation at 370 nm and emission at 440 nm). Concurrently, there were conducted the experiment wherein, in the system above, the trypsin solution was substituted for a buffer alone, and the experiment wherein the solution of the compounds of the present invention was substituted for a buffer above. Each fluorescence (b2 and b3) was determined respectively.
as §2

Another experiment deals with T5, cathepsin B (Bos taurus, UniProt P07688).
T5 construct: purchased Sigma; host or cells: bovine spleen
Kind of experiment: Determination of cathepsin B-inhibitory activity. It counts as biochemical, bovine. Conditions: read-out: inhibition rate, cathepsin B. Here is the method: as §1
Determination of cathepsin B-inhibitory activity
Similarly, by following the procedure mentioned above, but employing a 100 mM sodium phosphate buffer (pH 6.0; containing 1.33 mM EDTA Na2) as a buffer for measurement, a 0.02 μM solution of cathepsin B (derived from bovine spleen, Sigma) in the same buffer as an enzyme solution and a 200 μM solution of 7-(N-benzyloxycarbonyl-phenylaranyl-arginyl)-4-methylcoumarinamide (Peptide Institute, Inc.) in the same buffer as a substrate solution, each fluorescence (f1, f2 and f3) was determined, respectively.
as §2

Each structure is given as a SMILES string.

T1 sequence (O70196 whole entry): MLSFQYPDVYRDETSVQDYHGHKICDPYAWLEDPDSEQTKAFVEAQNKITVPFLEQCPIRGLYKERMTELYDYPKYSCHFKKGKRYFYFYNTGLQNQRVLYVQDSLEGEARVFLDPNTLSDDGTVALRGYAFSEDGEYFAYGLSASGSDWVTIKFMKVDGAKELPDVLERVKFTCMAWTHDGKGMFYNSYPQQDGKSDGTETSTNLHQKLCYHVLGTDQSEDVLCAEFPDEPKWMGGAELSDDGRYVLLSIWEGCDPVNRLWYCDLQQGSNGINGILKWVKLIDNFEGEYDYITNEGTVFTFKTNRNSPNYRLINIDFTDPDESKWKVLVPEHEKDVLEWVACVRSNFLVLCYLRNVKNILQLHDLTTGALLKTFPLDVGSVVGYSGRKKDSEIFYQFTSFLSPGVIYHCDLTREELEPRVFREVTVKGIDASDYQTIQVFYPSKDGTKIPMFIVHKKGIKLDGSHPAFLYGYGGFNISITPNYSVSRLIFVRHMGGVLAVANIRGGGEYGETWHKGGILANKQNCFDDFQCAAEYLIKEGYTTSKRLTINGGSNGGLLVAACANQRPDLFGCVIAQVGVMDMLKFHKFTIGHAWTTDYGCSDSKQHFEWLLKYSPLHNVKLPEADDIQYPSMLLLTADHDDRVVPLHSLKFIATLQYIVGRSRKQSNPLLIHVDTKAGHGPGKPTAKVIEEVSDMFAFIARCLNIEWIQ
T2 sequence (P00772 27-266): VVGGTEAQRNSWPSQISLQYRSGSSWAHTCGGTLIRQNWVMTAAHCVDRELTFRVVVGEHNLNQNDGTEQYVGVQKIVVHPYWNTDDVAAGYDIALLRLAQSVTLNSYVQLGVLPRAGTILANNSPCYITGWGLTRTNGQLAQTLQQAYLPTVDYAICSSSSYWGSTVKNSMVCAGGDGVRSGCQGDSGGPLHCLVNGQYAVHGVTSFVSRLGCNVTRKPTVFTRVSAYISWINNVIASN

As for `O=C(C[S@@+]([O-])c1ccccc1)[C@@H]1CCCN1C(=O)[C@@H]1CCCN1C(=O)OCc1ccccc1` [Compound 10, (2S)-1-(N-Benzyloxycarbonyl-L-prolyl)-2-{[(R)-phenylsulfinyl]acetyl}pyrrolidine], in the experiment with leucine aminopeptidase (0.1 μM), the “inhibition rate, leucine aminopeptidase” value turned out to be 0. Also, the inhibition at 0.1 µM at prolyl endopeptidase amounted to 97%; on elastase, 0%; at chymotrypsin, 0%; on trypsin it was 0%; on cathepsin B, 0%. Also, the IC50 on prolyl endopeptidase worked out at 80 nM.

`COc1ccc([S@@+]([O-])CC(=O)[C@@H]2CCCN2C(=O)[C@@H]2CCCN2C(=O)OCc2ccccc2)cc1` [Compound 11, (2S)-1-(N-Benzyloxycarbonyl-L-prolyl)-2-{[(S)-4-methoxy-phenylsulfinyl]acetyl}pyrrolidine]: the “inhibition rate, leucine aminopeptidase” value with leucine aminopeptidase (0.1 μM) came out at 0. Besides, the inhibition at 0.1 µM was determined as 90% at prolyl endopeptidase; 0% at elastase; 0% on chymotrypsin; 0% at trypsin; 0% at cathepsin B. In addition, the IC50 at prolyl endopeptidase was 1.5 nM.

As to `COc1ccc([S@+]([O-])CC(=O)[C@@H]2CCCN2C(=O)[C@@H]2CCCN2C(=O)OCc2ccccc2)cc1` [Compound 12, (2S)-1-(N-Benzyloxycarbonyl-L-prolyl)-2-{[(R)-4-methoxy-phenylsulfinyl]acetyl}pyrrolidine], the “inhibition rate, leucine aminopeptidase” value in the experiment with leucine aminopeptidase (1 μM) is 0. For the same compound, the inhibition at 1 µM came out at 92% on prolyl endopeptidase; 0% on elastase; 0% at chymotrypsin; 0% at trypsin; 0% at cathepsin B. Also, on prolyl endopeptidase, the IC50 was 20 nM.

On to `Cc1ccc([S@@+]([O-])CC(=O)[C@@H]2CCCN2C(=O)[C@@H]2CCCN2C(=O)OCc2ccccc2)cc1` [Compound 13, (2S)-1-(N-Benzyloxycarbonyl-L-prolyl)-2-{[(S)-p-tolyl-sulfinyl]acetyl}pyrrolidine], for which the “inhibition rate, leucine aminopeptidase” value in the experiment with leucine aminopeptidase (0.1 μM) was 0. Besides, the inhibition at 0.1 µM on prolyl endopeptidase is 98%; at elastase, 0%; on chymotrypsin it was 0%; at trypsin, 0%; on cathepsin B, 0%. The IC50 on prolyl endopeptidase was 0.3 nM.

Regarding `Cc1ccc([S@+]([O-])CC(=O)[C@@H]2CCCN2C(=O)[C@@H]2CCCN2C(=O)OCc2ccccc2)cc1` [Compound 14], the “inhibition rate, leucine aminopeptidase” value in the experiment with leucine aminopeptidase (0.1 μM) was 0. The inhibition at 0.1 µM at prolyl endopeptidase was found to be 97%; at elastase, 0%; at chymotrypsin, 0%; at trypsin it was 0%; at cathepsin B it was 0%. On prolyl endopeptidase, the IC50 was determined as 1.5 nM.

For `COc1ccc([S@@+]([O-])CC(=O)[C@@H]2CCCN2C(=O)[C@@H]2CCCN2C(=O)CCc2ccccc2)cc1` [Compound 15], in the experiment on leucine aminopeptidase (0.1 μM), the “inhibition rate, leucine aminopeptidase” value was determined as 0. The inhibition at 0.1 µM is 98% at prolyl endopeptidase; 0% on elastase; 0% at chymotrypsin; 0% at trypsin; 0% on cathepsin B. On prolyl endopeptidase, the IC50 was 2.5 nM.

On to `Cc1ccc([S@@+]([O-])CC(=O)[C@@H]2CCCN2C(=O)[C@@H]2CCCN2C(=O)CCc2ccccc2)cc1` [Compound 16, (2S)-1-[N-(3-Phenylpropionyl)-L-prolyl]-2-{[(S)-p-tolylsulfinyl]acetyl}pyrrolidine], for which the “inhibition rate, leucine aminopeptidase” value in the experiment on leucine aminopeptidase (0.1 μM) is given as 0. The inhibition at 0.1 µM was found to be 99% at prolyl endopeptidase; 0% at elastase; 0% at chymotrypsin; 0% on trypsin; 0% at cathepsin B. For the same compound, the IC50 at prolyl endopeptidase is 1.5 nM.

For the compound `O=C(C[S@+]([O-])c1ccccc1)[C@@H]1CCCN1C(=O)[C@@H]1CCCN1C(=O)CCc1ccccc1` [Compound 17, (2S)-1-[N-(3-Phenylpropionyl)-L-prolyl]-2-{[(S)-phenylsulfinyl]acetyl}pyrrolidine], the “inhibition rate, leucine aminopeptidase” value in the experiment with leucine aminopeptidase (0.1 μM) came to 0. For the same compound, the inhibition at 0.1 µM at prolyl endopeptidase amounted to 99%; on elastase it was 0%; at chymotrypsin, 0%; at trypsin it was 0%; at cathepsin B, 0%. The IC50 at prolyl endopeptidase came out at 0.5 nM.

In the case of `COc1ccc(OCC(=O)[C@@H]2CCCN2C(=O)[C@@H]2CCCN2C(=O)OCc2ccccc2)cc1` [Compound 18, (2S)-1-(N-Benzyloxycarbonyl-L-prolyl)-2-[(4-methoxyphenoxy)-acetyl]pyrrolidine], the “inhibition rate, leucine aminopeptidase” value with leucine aminopeptidase (0.1 μM) worked out at 0. Besides, the inhibition at 0.1 µM at prolyl endopeptidase turned out to be 93%; at elastase it was 0%; at chymotrypsin, 0%; on trypsin, 0%; at cathepsin B it was 0%. Besides, at prolyl endopeptidase, the IC50 was found to be 1.5 nM.

As for `O=C(COc1ccccc1)[C@@H]1CCCN1C(=O)[C@@H]1CCCN1C(=O)CCc1ccccc1` [Compound 19, (2S)-2-(Phenoxyacetyl)-1-[N-(3-phenylpropionyl)-L-prolyl]-pyrrolidine], the “inhibition rate, leucine aminopeptidase” value in the experiment on leucine aminopeptidase (1 μM) is recorded as 0. For the same compound, the inhibition at 1 µM stood at 98% at prolyl endopeptidase; 0% on elastase; 0% on chymotrypsin; 0% on trypsin; 0% on cathepsin B. For the same compound, on prolyl endopeptidase, the IC50 came to 15 nM.

As usually defined, the inhibition is how much of the control response was suppressed. For orientation: IC50 means the concentration that inhibits the measured activity by half.
